Drawing on patent publication US20210371388A1, “Bicyclic Carboxamide with Exocyclic Urea Derivatives as Antivirals for the Treatment of HBV Infection” (Baruch S. Blumberg Institute, priority 2020, published 2021), this text covers EC50 for 25 compounds.

The test has as its system HBV replication in AML12HBV10 cells. Kind of test: Antiviral efficacy: HBV DNA in AML12HBV10 cell lysates by dot-blot hybridization. It is filed as cell-based. The following applies: Hepatitis B virus, AML12HBV10, 48 h, read-out: Antiviral activity (EC50), AML12HBV10 cells, 48 hours treatment, concentration that reduces the amount of HBV DNA by 50%. On the procedure: The antiviral efficacy of the compounds of the disclosure, as presented in Table 2, were determined in AML12HBV10 cells. AML12HBV10 is an immortalized murine hepatocyte (AML12)-derived stable cell line that supports robust HBV replication in a tetracycline inducible manner (Xu et al.). The cells were seeded into 96 well plates at a density of 2×10^4 cells per well and cultured in DMEM/F12 media with 10% fetal bovine serum in the absence of tetracycline to allow pgRNA transcription and HBV DNA replication. One day after seeding, cells were left untreated or treated with a serial dilution of testing compounds, ranging from 50 μM to 0.39 μM, for 48 hours. Cells were then lysed by adding into each well of 100 μl lysis buffer containing 10 mM Tris-HCl (pH 7.6), 1 mM EDTA, 100 mM NaCl and 1% NP-40 and incubated at 37° C. for 30 minutes. Half amount (50 μλ) of cell lysate from each well was combined with equal volume of denaturing solution containing 0.5N NaOH and 1.5M NaCl. After 5 minute incubation, 100 μl of neutralization solution (1M Tris-HCl, pH 7.4, 1.5M NaCl) was added into each well. The denatured cell lysates (totally 200 μl) were applied onto Nylon membrane using 96-well dot-blot manifold (Biorad). HBV DNA in the cell lysates were determined by dot-blot hybridization with alpha-^32P-UTP-labelled riboprobe specific for HBV minus strand DNA. The antiviral efficacy of a compound of the disclosure was expressed as the concentration that reduces the amount of HBV DNA by 50% (EC50).

Regarding `O=C(Nc1ccc(F)c(Cl)c1)N1CCNc2cc(OCc3ccccc3)ccc21` [Entry 87], the EC50 is 2820 nM.
For `O=C(Nc1ccc(F)c(Cl)c1)N1C(c2ccccc2)CN[C@H]2CCCC[C@@H]21` (stereo partly shown) [Entry 88] the value was ≥ 10000 nM; for `O=C(Nc1ccc(F)c(Cl)c1)N1c2ccccc2NCC1CN1CCOCC1` (stereo not shown) [Entry 89], 7300 nM.
The figure for `COC(=O)C1COCCN1CC1CNc2ccccc2N1C(=O)Nc1ccc(F)c(Cl)c1` (stereo not shown) [Entry 90] is 2200 nM; for `O=C(O)C1COCCN1CC1CNc2ccccc2N1C(=O)Nc1ccc(F)c(Cl)c1` (stereo not shown) [Entry 91] it is ≥ 10000 nM.
As to `O=C(Nc1ccc(F)c(Cl)c1)N1CC(CN2CCOCC2)Nc2ccccc21` (stereo not shown) [Entry 96], the EC50 is ≥ 10000 nM.
For `COC(=O)[C@H]1CC(F)(F)CN1CC1CNc2ccccc2N1C(=O)Nc1ccc(F)c(Cl)c1` (stereo partly shown) [Entry 97] the value was ≥ 10000 nM.
For `O=C(O)[C@H]1CC(F)(F)CN1CC1CNc2ccccc2N1C(=O)Nc1ccc(F)c(Cl)c1` (stereo partly shown) [Entry 98] the value was ≥ 10000 nM.
For `COC(=O)[C@@H]1CC(F)(F)CN1CC1CNc2ccccc2N1C(=O)Nc1ccc(F)c(Cl)c1` (stereo partly shown) [Entry 100] the value was 1110 nM; for `O=C(Nc1ccc(F)c(Cl)c1)N1c2ccccc2NCC1CN1CCC2(CC1)OCCO2` (stereo not shown) [Entry 103], ≥ 10000 nM.
With `CS(=O)(=O)N1CCN(CC2CNc3ccccc3N2C(=O)Nc2ccc(F)c(Cl)c2)CC1` (stereo not shown) [Entry 104], the EC50 was ≥ 10000 nM.
The figure for `CCOC(=O)C1=C(F)CCN(CC2CNc3ccccc3N2C(=O)Nc2ccc(F)c(Cl)c2)C1` (stereo not shown) [Entry 105] is ≥ 10000 nM.
The figure for `CCOC(=O)C1CN(CC2CNc3ccccc3N2C(=O)Nc2ccc(F)c(Cl)c2)CCC1(F)F` (stereo not shown) [Entry 106] is 7680 nM; for `O=C(O)C1CCCN(CC2CNc3ccccc3N2C(=O)Nc2ccc(F)c(Cl)c2)C1` (stereo not shown) [Entry 107] it is ≥ 10000 nM; for `O=C(Nc1ccc(F)c(Cl)c1)N1c2ccccc2NCC1CN1CCC(F)(F)C(CO)C1` (stereo not shown) [Entry 108] it is 2170 nM.
For `O=C(Nc1ccc(F)c(Cl)c1)N1c2ccccc2NCC1CN1CCS(=O)(=O)CC1` (stereo not shown) [Entry 110] the value was 2000 nM; for `O=C(Nc1cc(F)c(F)c(F)c1)N1CCN(C(=O)Nc2ccc(F)c(Cl)c2)c2ccccc21` [Entry 111], 500 nM.
With `O=C(Nc1ccc(F)c(Cl)c1)N1CCN(C(=O)Nc2cc(Cl)c(F)cc2F)c2ccccc21` [Entry 112], the EC50 came out at 290 nM.
For `O=C(O)C1CN(CC2CNc3ccccc3N2C(=O)Nc2ccc(F)c(Cl)c2)CC(F)(F)C1` (stereo not shown) [Entry 113] the value was 450 nM; for `Cc1cc(NC(=O)N2CCNc3ccccc32)ccc1F` [Entry 116], 240 nM.
As for `N#Cc1cc(NC(=O)N2CCNc3ccccc32)ccc1F` [Entry 119], the EC50 came out at 520 nM.
In the case of `O=C1CCN(C(=O)Nc2ccc(F)c(C(F)(F)F)c2)C2CCCCC12` (stereo not shown) [Entry 120], the EC50 worked out at 1090 nM.
With `O=C(Nc1ccc(F)c(C(F)(F)F)c1)N1CCNc2ccccc21` [Entry 122], the EC50 was found to be 320 nM.
The figure for `O=C(Nc1ccc(F)c(C(F)F)c1)N1CCNc2ccccc21` [Entry 125] is 190 nM.
`O=C1CCN(C(=O)Nc2cccc(Cl)c2)C2CCCCC12` (stereo not shown) [Entry 126]: the EC50 was determined as 200 nM.
